Reference: patent publication US11690810B2, “Combination treatment of bacterial infection” (The Chinese University of Hong Kong, priority 2018, dated 2023)
Values after ≈ are worked out from the molar mass of the structure shown. Read-outs that look alike come from different tables or passages of the source.

How the values were obtained:
[1] = test system: MRSA SA-ST239; assay: MIC and checkerboard (FIC) assay
[2] = test system: adherence of MRSA strain JE-2 to fibrinogen; assay: Fibrinogen-binding adherence assay (crystal violet); format: cell-based, Staphylococcus aureus; conditions: kuraridin at 1.0 μg/ml
[3] = test system: S. aureus SA-RN4220-pUL5054 (RN4220); assay: MIC and checkerboard (FIC) assay
[4] = test system: panel of laboratory MRSA strains; assay: MIC and combination tests, panel of laboratory strains
[5] = test system: panel of MRSA strains; conditions: previous study (12); cited from earlier work
[6] = physchem
[7] = test system: Panton-Valentine leukocidin positive CA-MRSA strain ST30; format: in vivo, Balb/c mice
[8] = test system: internalization of MRSA strain JE-2 by HaCat keratinocytes; assay: Internalization of S. aureus by HaCaT keratinocytes; format: cell-based, Staphylococcus aureus
[9] = test system: S. aureus ATCC25923 (methicillin sensitive); assay: MIC and checkerboard (FIC) assay; conditions: Staphylococcus aureus
[10] = test system: Human Mammary Epithelial Cell (HMEC); assay: XTT cytotoxicity testing; format: cell-based; conditions: 2-64 μg/ml, vs drug free control
Description: (§1) The plates were maintained in a 37° C. incubator.

[11] = test system: S. aureus SA-APH3′ (APH3), resistant to kanamycin; assay: MIC and checkerboard (FIC) assay
[12] = test system: adherence of MRSA strain JE-2 to HaCat keratinocytes; assay: Bacterial adherence to HaCaT keratinocytes; format: cell-based, Staphylococcus aureus
[13] = test system: S. aureus SA-ANT4′ (ANT4), resistant to fusidic acid; assay: MIC and checkerboard (FIC) assay
[14] = test system: clinical community-associated (CA) and hospital-associated (HA) MRSA strains; assay: MIC and combination tests, panel of clinical strains
[15] = test system: cytokines production of human PBMC stimulated with PGN or SEB; format: cell-based
[16] = test system: cytokines production of human macrophages stimulated with PGN or SEB; format: cell-based
[17] = test system: human peripheral blood mononuclear cells (PBMC); assay: XTT cytotoxicity testing; format: cell-based; conditions: 2-64 μg/ml, vs drug free control
Description: as §1
The cytotoxicity of kuraridin and its analogues were determined by the sodium 3′-[1-(phenylaminocarbonyl)-3,4-tetrazolium]-bis (4-methoxy-6-nitro) benzene sulfonic acid hydrate (XTT) assay.
Serial dilutions of the compounds ranging 2-64 μg/ml were incubated with PBMCs at 37° C. for 72 hrs.

[18] = test system: clinical MRSA ST239; assay: Mouse pneumonia model, ST239 (neutropenic mice); format: in vivo, Balb/c mice
[19] = test system: S. aureus SA-APH2″-AAC6′ (APH2), resistant to gentamicin; assay: MIC and checkerboard (FIC) assay
[20] = test system: S. aureus SA-1199B (NorA efflux pump overexpressed); assay: MIC and checkerboard (FIC) assay
[21] = test system: Human Umbilical Vein Endothelial Cells (HUVEC); assay: XTT cytotoxicity testing; conditions: 2-64 μg/ml, vs drug free control
[22] = test system: bacterial aggregation of MRSA JE-2; assay: Aggregation assay of MRSA JE-2; format: cell-based, Staphylococcus aureus; conditions: kuraridin at 4 μg/ml
[23] = test system: HA MRSA W238; assay: MIC and checkerboard (FIC) assay
[24] = test system: CA MRSA W47; assay: MIC and checkerboard (FIC) assay
[25] = test system: methicillin sensitive Staphylococcus aureus ATCC25923; assay: Mouse pneumonia model, ATCC25923 (neutropenic mice); format: in vivo, Balb/c mice
[26] = test system: CA MRSA W44; assay: MIC and checkerboard (FIC) assay
[27] = test system: CA MRSA W46; assay: MIC and checkerboard (FIC) assay
[28] = test system: HA MRSA W239; assay: MIC and checkerboard (FIC) assay
[29] = test system: HA MRSA W232; assay: MIC and checkerboard (FIC) assay
[30] = test system: HA MRSA W233; assay: MIC and checkerboard (FIC) assay
[31] = test system: CA MRSA W45; assay: MIC and checkerboard (FIC) assay
[32] = test system: CA-MRSA strain ST30; assay: MIC and checkerboard (FIC) assay; format: cell-based, Staphylococcus aureus
[33] = test system: CA MRSA W48; assay: MIC and checkerboard (FIC) assay
[34] = test system: HA MRSA W231; assay: MIC and checkerboard (FIC) assay
[35] = Staphylococcus aureus, read-out: MIC 99.9
[36] = Staphylococcus aureus, read-out: MIC alone
[37] = Staphylococcus aureus, MRSA, read-out: MIC alone

For `C=C(C)C(CC=C(C)C)Cc1c(O)cc(OC)c(C(=O)/C=C/c2ccc(O)cc2O)c1O` (stereo not drawn) [Kuraridin], the MIC90 ([1]; Staphylococcus aureus, MRSA) was 8 µg/mL, the MIC99 ([1]; Staphylococcus aureus, MRSA, read-out: MIC 99.9) was 8 µg/mL and the “reduction in the adherence of the WT strain to fibrinogen” value [2] was 100%. For the same molecule, the FIC ([3]; RN4220, Kuraridin with ECG) was 0.25, the MIC combine ([3]; RN4220, Kuraridin with ECG) was 2 µg/mL and the MIC90 ([3]; Staphylococcus aureus) was 8 µg/mL. For the same molecule, the MIC ([3]; Staphylococcus aureus, read-out: Activity (MIC, μg/ml)) was 8 µg/mL, the MIC99 [3, 35] was 8 µg/mL and the MIC [3, 36] was 8 µg/mL. The MIC99 ([4]; Staphylococcus aureus, MRSA) was 8 to 16 µg/mL, the “MICs in kuraridin and ECG combined treatment” value ([4]; range over laboratory strains (Table 2)) was 2 to 4 µg/mL and the “minimum inhibitory concentration (MIC)” value [5] was “around 8 μg/ml”. For the same molecule, the solubility ([6]; aqueous with cosolvent or surfactant or cyclodextrin) was 20 mg/mL (≈ 45.6 mM), the “log CFU counts (left lung)” value ([7]; ST30, kuraridin 120 mg/kg, ECG 120 mg/kg, 48 h, control 9.24±0.15) was 8.25±0.39 log CFU and the survival rates ([7]; ST30, kuraridin 120 mg/kg, ECG 120 mg/kg, control 30%) was 50%. The “log CFU counts and survival rates” value ([7]; ST30, used alone at 60 and 120 mg/kg) was “could not reduce the log CFU counts or improve the survival rates”, the “percentage of internalized bacteria by HaCaT cells” value ([8]; kuraridin 0.25 μg/ml) was 23.8±4.6% and the “percentage of internalized bacteria by HaCaT cells” value ([8]; kuraridin 0.5 μg/ml) was 15.8±2.0%. For the same molecule, the MIC90 ([9]; ATCC25923) was 8 µg/mL, the MIC99 ([9]; ATCC25923, read-out: MIC 99.9) was 8 µg/mL and the “Cellular toxicity (XTT assay)” value [10] was “not toxic”. The FIC ([11]; APH3, Kuraridin with ECG) was 0.25, the MIC combine ([11]; APH3, Kuraridin with ECG) was 2 µg/mL and the MIC90 ([11]; Staphylococcus aureus) was 8 µg/mL. For the same molecule, the MIC99 [11, 35] was 8 µg/mL, the MIC [11, 36] was 8 µg/mL and the “adherence of WT strain to HaCaT cells” value ([12]; 2 μg/ml kuraridin (0.25×MIC)) was “abolished”. For the same molecule, the “percentage of adherence of the bacteria” value ([12]; kuraridin 0.25 μg/ml) was 28.4±3.2%, the “percentage of adherence of the bacteria” value ([12]; kuraridin 0.5 μg/ml) was 17.8±11.1% and the “percentage of adherence of the bacteria” value ([12]; kuraridin 1 μg/ml) was 7.6±3.7%. The FIC ([13]; ANT4, Kuraridin with ECG) was 0.25, the MIC combine ([13]; ANT4, Kuraridin with ECG) was 2 µg/mL and the MIC90 ([13]; Staphylococcus aureus) was 4 µg/mL. The MIC99 [13, 35] was 8 µg/mL, the MIC [13, 36] was 8 µg/mL and the “MICs in kuraridin and ECG combined treatment” value ([14]; range over clinical CA and HA MRSA strains (Table 3)) was 1 to 4 µg/mL. The “IL-10 and IL-12 production” value [15] was “dose-dependently inhibited”, the IFN-γ productions [16] was “could suppress” and the “IL-6 and IL-12 production” value [16] was “dose-dependently inhibited”. For the same molecule, the TNF-α production [16] was “suppressed”, the “Cellular toxicity (XTT assay)” value [17] was “not toxic” and the mice died ([18]; ST239, 48 h, 1 also died in control) was 1 mouse. The FIC ([19]; APH2, Kuraridin with ECG) was 0.25, the MIC combine ([19]; APH2, Kuraridin with ECG) was 2 µg/mL and the MIC90 ([19]; Staphylococcus aureus) was 8 µg/mL. For the same molecule, the MIC99 [19, 35] was 8 µg/mL, the MIC [19, 36] was 8 µg/mL and the FIC ([20]; 1199B, Kuraridin with ECG) was 0.25. The MIC combine ([20]; 1199B, Kuraridin with ECG) was 4 µg/mL, the MIC90 ([20]; Staphylococcus aureus) was 16 µg/mL and the MIC99 [20, 35] was 16 µg/mL. The MIC ([20]; Staphylococcus aureus, read-out: MIC alone, 1199B, Kuraridin and ECG section) was 16 µg/mL, the “Cellular toxicity (XTT assay)” value [21] was “not toxic” and the “aggregation lower than the mutant ΔSrtA” value [22] was 3.7 folds. The “reduction in bacterial aggregation as compared to the wild type without drug” value [22] was 4.4 fold.
Molecule `CN[C@H](CC(C)C)C(=O)N[C@H]1C(=O)N[C@@H](CC(N)=O)C(=O)N[C@H]2C(=O)N[C@H]3C(=O)N[C@H](C(=O)N[C@H](C(=O)O)c4cc(O)cc(O)c4-c4cc3ccc4O)[C@H](O)c3ccc(c(Cl)c3)Oc3cc2cc(c3O[C@@H]2O[C@H](CO)[C@@H](O)[C@H](O)[C@H]2O[C@H]2C[C@](C)(N)[C@H](O)[C@H](C)O2)Oc2ccc(cc2Cl)[C@H]1O` [Vancomycin, vancomycin, reference compound] has an FIC ([1]; ST239, ECG+Kur+Van) of 0.5, an MIC combine ([1]; ST239, ECG+Kur+Van) of 0.5 µg/mL and an MIC [1, 37] of 1 µg/mL. It also gave an MIC [23, 37] of 1 µg/mL, an FIC ([23]; W238, ECG+Kur+Van) of 0.5 and an MIC combine ([23]; W238, ECG+Kur+Van) of 0.5 µg/mL. The MIC [24, 37] was 1 µg/mL, the FIC ([24]; W47, ECG+Kur+Van) was 0.25 and the MIC combine ([24]; W47, ECG+Kur+Van) was 0.25 µg/mL. For the same molecule, the solubility ([6]; saline or isotonic) was 20 mg/mL (≈ 13.8 mM), the “expression levels of TNFα, IL-1β, and IL-6 from lung homogenates” value ([7]; mouse, in vivo) was “significantly lowered” and the “lung tissue profiles (histology) vs control” value ([7]; mouse, in vivo) was “fewer lesions”. The survival rate ([7]; mouse, in vivo) was 100%, the “lung tissue profiles (histology) vs control” value [25] was “fewer lesions” and the “mean bacteria counts (left lung)” value ([25]; vancomycin 60 mg/kg, ECG 120 mg/kg, kuraridin 120 mg/kg, 48 h, control 8.909±0.101) was 6.064±0.425 log CFU. The MIC [26, 37] was 1 µg/mL, the FIC ([26]; W44, ECG+Kur+Van) was 0.5 and the MIC combine ([26]; W44, ECG+Kur+Van) was 0.5 µg/mL. For the same molecule, the MIC ([14]; Staphylococcus aureus, MRSA, read-out: MIC of vancomycin alone) was 1 µg/mL, the “MIC of vancomycin with ECG and kuraridin combined treatment” value ([14]; panel of clinical strains (Table 5)) was 0.5 µg/mL and the MIC [27, 37] was 1 µg/mL. The FIC ([27]; W46, ECG+Kur+Van) was 0.5, the MIC combine ([27]; W46, ECG+Kur+Van) was 0.5 µg/mL and the MIC [28, 37] was 1 µg/mL. For the same molecule, the FIC ([28]; W239, ECG+Kur+Van) was 0.5, the MIC combine ([28]; W239, ECG+Kur+Van) was 0.5 µg/mL and the MIC [29, 37] was 1 µg/mL. The FIC ([29]; W232, ECG+Kur+Van) was 0.5, the MIC combine ([29]; W232, ECG+Kur+Van) was 0.5 µg/mL and the MIC [30, 37] was 1 µg/mL. The FIC ([30]; W233, ECG+Kur+Van) was 0.5, the MIC combine ([30]; W233, ECG+Kur+Van) was 0.5 µg/mL and the “mean bacteria counts (left lung)” value ([18]; mouse, in vivo) was 4.73±0.26 log CFU. For the same molecule, the MIC [31, 37] was 1 µg/mL, the FIC ([31]; W45, ECG+Kur+Van) was 0.5 and the MIC combine ([31]; W45, ECG+Kur+Van) was 0.5 µg/mL. The FIC ([32]; ST30, ECG+Kur+Van) was 0.5, the MIC combine ([32]; ST30, ECG+Kur+Van) was 0.5 µg/mL and the MIC [32, 37] was 1 µg/mL. It also gave an MIC [33, 37] of 1 µg/mL, an FIC ([33]; W48, ECG+Kur+Van) of 0.5 and an MIC combine ([33]; W48, ECG+Kur+Van) of 0.5 µg/mL. The MIC [34, 37] was 1 µg/mL and the MIC combine ([34]; W231, ECG+Kur+Van) was 0.5 µg/mL.
